Data taken from patent US8956999B2, “Herbicides” (Syngenta Limited, priority 2007, dated 2015).

Legend:
Format in all cases: in vivo
[1] = system: Echinochloa crus-galli (ECHCG); experiment: Example B pre-emergence herbicidal test, glasshouse; conditions: Echinochloa crus-galli, 312 h, rate 250 g/ha, evaluated after 13 days, 100=total damage to plant, 0=no damage to plant, read-out: Pre-Emergence Activity ECHGG
Procedure: (§1) Seeds of a variety of test species were sown in standard soil in pots. After cultivation for one day (pre-emergence) or after 8 days cultivation (post-emergence) under controlled conditions in a glasshouse (at 24/16° C., day/night; 14 hours light; 65% humidity), the plants were sprayed with an aqueous spray solution derived from the formulation of the technical active ingredient in acetone/water (50:50) solution containing 0.5% Tween 20 (polyoxyethelyene sorbitan monolaurate, CAS RN 9005-64-5). The test plants were then grown in a glasshouse under controlled conditions in a glasshouse (at 24/16° C., day/night; 14 hours light; 65% humidity) and watered twice daily. After 13 days for pre and post-emergence, the test was evaluated (100=total damage to plant; 0=no damage to plant). Test Plants: Alopecurus myosuroides (ALOMY), Avena fatua (AVEFA), Setaria faberi (SETFA), Echinochloa crus-galli (ECHCG), Solanum nigrum (SOLNI) and Amaranthus retoflexus (AMARE)

Setaria faberi (SETFA) [2] = experiment: as above; conditions: Setaria faberi, 312 h, rate 250 g/ha, evaluated after 13 days, 100=total damage to plant, 0=no damage to plant, read-out: Pre-Emergence Activity SEFTA
Procedure: as §1

[3] = system: Amaranthus retoflexus (AMARE); experiment: as above; conditions: Amaranthus retroflexus, 312 h, rate 250 g/ha, evaluated after 13 days, 100=total damage to plant, 0=no damage to plant
Procedure: as §1

[4] = system: Alopecurus myosuroides (ALOMY); experiment: as above; conditions: 312 h, rate 250 g/ha, evaluated after 13 days, 100=total damage to plant, 0=no damage to plant
Procedure: as §1

Avena fatua (AVEFA) [5] = experiment: as above; conditions: 312 h, rate 250 g/ha, evaluated after 13 days, 100=total damage to plant, 0=no damage to plant
Procedure: as §1

[6] = system: Echinochloa crus-galli (ECHCG); experiment: Example B post-emergence herbicidal test, glasshouse; conditions: 312 h, rate 250 g/ha, evaluated after 13 days, read-out: Post-Emergence Activity ECHGG (100=total damage to plant; 0=no damage to plant)
Procedure: as §1

Setaria faberi (SETFA) [7] = experiment: as above; conditions: 312 h, rate 250 g/ha, evaluated after 13 days, read-out: Post-Emergence Activity SEFTA (100=total damage to plant; 0=no damage to plant)
Procedure: as §1

[8] = system: Amaranthus retoflexus (AMARE); experiment: as above; conditions: Amaranthus retroflexus, 312 h, rate 250 g/ha, evaluated after 13 days, read-out: Post-Emergence Activity AMARE (100=total damage to plant; 0=no damage to plant)
Procedure: as §1

[9] = system: Alopecurus myosuroides (ALOMY); experiment: as above; conditions: 312 h, rate 250 g/ha, evaluated after 13 days, read-out: Post-Emergence Activity ALOMY (100=total damage to plant; 0=no damage to plant)
Procedure: as §1

Avena fatua (AVEFA) [10] = experiment: as above; conditions: 312 h, rate 250 g/ha, evaluated after 13 days, read-out: Post-Emergence Activity AVEFA (100=total damage to plant; 0=no damage to plant)
Procedure: as §1

SMILES | pest or weed control at 250 g/ha [1] [%] | pest or weed control at 250 g/ha (Setaria faberi (SETFA) [2]) [%] | pest or weed control at 250 g/ha [3] [%] | pest or weed control at 250 g/ha [4] [%] | pest or weed control at 250 g/ha (Avena fatua (AVEFA) [5]) [%] | pest or weed control at 250 g/ha [6] [%] | pest or weed control at 250 g/ha (Setaria faberi (SETFA) [7]) [%] | pest or weed control at 250 g/ha [8] [%] | pest or weed control at 250 g/ha [9] [%] | pest or weed control at 250 g/ha (Avena fatua (AVEFA) [10]) [%]
CC(=O)OC1=C(c2nc(-c3ccc(Br)cc3C)sc2C)C(=O)C(C)(C)OC1(C)C [Compound P6] | 70 | 100 | 0 | 90 | 80 | 100 | 100 | 0 | 100 | 90
Cc1cc(Br)ccc1-c1nc(C2=C(OC(=O)C3CC3)C(C)(C)OC(C)(C)C2=O)c(C)s1 [Compound P7] | 80 | 100 | 0 | 70 | 0 | 100 | 100 | 0 | 80 | 80
CC(=O)OC1=C(c2sc(-c3ccc(Cl)cc3)nc2C)C(=O)C(C)(C)OC1(C)C [Compound P9] | 50 | 40 | 0 | 20 | 0 | 100 | 80 | 30 | 90 | 80
Cc1sc(-c2ccc(Cl)cc2F)nc1C1C(=O)C(C)(C)C(=O)C(C)(C)C1=O [Compound T9] | 20 | 40 | 0 | 0 | 0 | 90 | 80 | 0 | 90 | 40
Cc1sc(-c2ccc(Cl)cc2F)nc1C1C(=O)C(C)(C)OC(C)(C)C1=O [Compound T21] | 100 | 100 | 0 | 60 | 0 | 100 | 100 | 0 | 100 | 90
Cc1sc(-c2ccc(Cl)c(F)c2)nc1C1C(=O)C(C)(C)OC(C)(C)C1=O [Compound T22] | 90 | 100 | 0 | 70 | 20 | 100 | 100 | 0 | 100 | 90
Cc1cc(-c2nc(C3C(=O)C(C)(C)C(=O)C(C)(C)C3=O)c(C)s2)ccc1Cl [Compound T42] | 40 | 0 | 40 | 0 | 0 | 20 | 0 | 0 | 0 | 0
Cc1sc(-c2ccc(Cl)c(Cl)c2)nc1C1C(=O)C(C)(C)C(=O)C(C)(C)C1=O [Compound T43] | 0 | 0 | 0 | 0 | 0 | 30 | 0 | 0 | 0 | 0
CCc1sc(-c2ccc(Cl)cc2F)nc1C1C(=O)C(C)(C)OC(C)(C)C1=O [Compound T47] | 70 | 90 | 20 | 70 | 90 | 100 | 100 | 0 | 100 | 100
CCc1sc(-c2ccc(Cl)c(F)c2)nc1C1C(=O)C(C)(C)OC(C)(C)C1=O [Compound T48] | 50 | 70 | 0 | 30 | 60 | 100 | 100 | 0 | 100 | 100
CCc1sc(-c2ccc(Br)cc2)nc1C1C(=O)C(C)(C)OC(C)(C)C1=O [Compound T49] | 60 | 80 | 0 | 60 | 20 | 100 | 100 | 20 | 100 | 100
CCc1sc(-c2ccc(Cl)cc2)nc1C1C(=O)C2CCC(C)(O2)C1=O (stereo not drawn) [Compound T50, 3-[2-(4-chloro-phenyl)-5-ethyl-thiazol-4-yl]-1-methyl-8-oxa-bicyclo[3.2.1]-octane-2,4-dione] | 100 | 100 | 0 | 90 | 90 | 100 | 100 | 0 | 100 | 100
Cc1sc(-c2ccc(I)cc2)nc1C1C(=O)C(C)(C)OC(C)(C)C1=O [Compound T51] | 60 | 100 | 0 | 40 | 80 | 90 | 100 | 0 | 100 | 90
Cc1sc(-c2ccc(Br)cc2F)nc1C1C(=O)C(C)(C)OC(C)(C)C1=O [Compound T52] | 80 | 100 | 0 | 60 | 0 | 100 | 100 | 0 | 100 | 100
CCc1sc(-c2ccc(Cl)cc2Cl)nc1C1C(=O)C(C)(C)OC(C)(C)C1=O [Compound T53] | 60 | 90 | 0 | 30 | 0 | 100 | 100 | 0 | 90 | 90
